Legend:
PDE5A1 = biological target: T1, PDE5A1 (Homo sapiens, UniProt O76074); assay: Inhibition of type 5 phosphodiesterase (PDE5) activity, modified SPA test with human platelet lysate; assay type: biochemical; conditions: 0.5 μM cGMP, read-out: PDE5A1 inhibitory values [measured as −log IC50 (mol/l)] (converted)
T1 construct: from tissue; host or cells: human platelets from fresh donor blood (10,000 x g supernatant of sonicated lysate)
Procedure, shortened: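 Scintillation proximity assay with [3H]cGMP tracer at 0.5 μM total cGMP, stopped after 15 min with beads containing IBMX. PDE3 and PDE2 activities suppressed with motapizone (1 μM) and a PDE2 inhibitor (10 nM). Human platelet supernatant served as the enzyme, with compound preincubated 5 min at 37° C; IC50 values from concentration-effect curves.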

PDE4B1 = biological target: T2, PDE4B1 (Homo sapiens, UniProt Q07343); assay: Inhibition of type 4 phosphodiesterase (PDE4) activity, modified SPA test with recombinant PDE4B1 expressed in SF21 insect cells; assay type: biochemical; conditions: recombinant PDE4B1, 0.5 μM cAMP, read-out: PDE4B1 inhibitory values [measured as −log IC50 (mol/l)] (converted)
T2 construct: made in house; host or cells: SF21 insect cells (baculovirus; pCRBac vector), 1000 x g supernatant of homogenate
T2 sequence (Q07343 whole entry): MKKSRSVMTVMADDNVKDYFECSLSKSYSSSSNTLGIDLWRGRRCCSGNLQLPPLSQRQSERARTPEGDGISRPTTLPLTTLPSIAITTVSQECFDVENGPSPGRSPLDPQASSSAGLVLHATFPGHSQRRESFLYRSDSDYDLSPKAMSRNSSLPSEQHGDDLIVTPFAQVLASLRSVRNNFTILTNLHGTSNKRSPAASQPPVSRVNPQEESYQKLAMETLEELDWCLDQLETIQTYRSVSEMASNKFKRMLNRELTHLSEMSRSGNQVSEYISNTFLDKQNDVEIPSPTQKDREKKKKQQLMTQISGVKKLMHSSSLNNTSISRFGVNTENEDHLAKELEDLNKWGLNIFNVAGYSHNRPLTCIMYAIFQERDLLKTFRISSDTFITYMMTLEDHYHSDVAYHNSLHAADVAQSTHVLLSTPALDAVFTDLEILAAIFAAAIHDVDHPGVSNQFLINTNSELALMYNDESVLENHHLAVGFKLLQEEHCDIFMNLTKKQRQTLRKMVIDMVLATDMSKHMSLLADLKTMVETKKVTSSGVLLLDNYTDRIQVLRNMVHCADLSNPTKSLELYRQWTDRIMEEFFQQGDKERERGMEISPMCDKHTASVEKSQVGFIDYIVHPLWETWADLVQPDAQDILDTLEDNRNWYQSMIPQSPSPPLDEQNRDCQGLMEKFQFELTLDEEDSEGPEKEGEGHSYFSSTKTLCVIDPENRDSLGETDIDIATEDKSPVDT
Procedure, shortened: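 Modified [3H]cAMP SPA using 1000×g supernatant of SF21 cells expressing recombinant human PDE4B1, in 20 mM Tris pH 7.4, 0.1 mg/ml BSA, 5 mM Mg2+, 0.5 μM cAMP. After 5 min preincubation at 37 °C, 15 min reaction, stopped with SPA beads plus IBMX; IC50 by non-linear regression.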

Compound | IC50 (PDE5A1) [nM] | IC50 (PDE4B1) [nM]
CCc1ccc(OCC2CC2)c(-c2ncnc3c(C(=O)N[C@@H]4CN(C(C)=O)C[C@H]4O)c(C)[nH]c23)c1 (relative stereo) [Example E154, N-[(3R*,4R*)-1-Acetyl-4-hydroxypyrrolidin-3-yl]-4-[2-(cyclopropylmethoxy)-5-ethylphenyl]-6-methyl-5H-pyrrolo[3,2-d]pyrimidine-7-carboxamide] | 1 to 10 | 100 to 1000
CC(=O)N1CCC(NC(=O)c2c(C)[nH]c3c(-c4cc(C(F)(F)F)ccc4OCC4CC4)ncnc23)CC1 [Example E90, N-(1-Acetylpiperidin-4-yl)-4-[2-(cyclopropylmethoxy)-5-(trifluoromethyl)phenyl]-6-methyl-5H-pyrrolo[3,2-d]pyrimidine-7-carboxamide] | < 1 | < 100
COc1ccc(OCC2CC2)c(-c2ncnc3c(C(=O)N[C@H]4CC[C@H](NC(C)=O)CC4)c(C)[nH]c23)c1 [Example E69, N-(trans-4-acetamidocyclohexyl)-4-[2-(cyclopropylmethoxy)-5-methoxyphenyl]-6-methyl-5H-pyrrolo[3,2-d]pyrimidine-7-carboxamide] | < 1 | 100 to 1000
CC(=O)N[C@H]1CC[C@@H](NC(=O)c2c(C)[nH]c3c(-c4cc(F)ccc4OCC4CC4)ncnc23)CC1 [Example E45, N-(cis-4-acetamidocyclohexyl)-4-[2-(cyclopropylmethoxy)-5-fluorophenyl]-6-methyl-5H-pyrrolo[3,2-d]pyrimidine-7-carboxamide] | 1 to 10 | 100 to 1000
CCc1ccc(OCC2CC2)c(-c2ncnc3c(C(=O)N[C@H]4CC[C@H](NC(C)=O)CC4)c(C)[nH]c23)c1 [Example E148, N-[trans-4-(Acetylamino)cyclohexyl]-4-[2-(cyclopropylmethoxy)-5-ethylphenyl]-6-methyl-5H-pyrrolo[3,2-d]pyrimidine-7-carboxamide] | < 1 | < 100
COCC(=O)N[C@H]1CC[C@@H](NC(=O)c2c(C)[nH]c3c(-c4cc(C)ccc4OCC4CC4)ncnc23)CC1 [Example E89, 4-[2-(Cyclopropylmethoxy)-5-methylphenyl]-N-{cis-4-[(methoxyacetyl)amino]cyclohexyl}-6-methyl-5H-pyrrolo[3,2-d]pyrimidine-7-carboxamide] | < 1 | < 100
CC(=O)N[C@H]1CC[C@H](NC(=O)c2c(C)[nH]c3c(-c4cc(C)ccc4OCC4CC4)ncnc23)CC1 [Example E84, N-[trans-4-(acetylamino)cyclohexyl]-4-[2-(cyclopropylmethoxy)-5-methylphenyl]-6-methyl-5H-pyrrolo[3,2-d]pyrimidine-7-carboxamide] | < 1 | < 100
CCOC(=O)N1CCC(NC(=O)c2c(C)[nH]c3c(-c4cc(F)ccc4OCC4CC4)ncnc23)CC1 [Example E40, Ethyl 4-[({4-[2-(cyclopropylmethoxy)-5-fluorophenyl]-6-methyl-5H-pyrrolo[3,2-d]pyrimidin-7-yl}carbonyl)amino]piperidine-1-carboxylate] | < 1 | 100 to 1000
CCc1ccc(OCC2CC2)c(-c2ncnc3c(C(=O)NC4CCN(C(C)=O)CC4)c(C)[nH]c23)c1 [Example E145, N-(1-Acetylpiperidin-4-yl)-4-[2-(cyclopropylmethoxy)-5-ethylphenyl]-6-methyl-5H-pyrrolo[3,2-d]pyrimidine-7-carboxamide] | < 1 | 100 to 1000
CCc1ccc(OCC2CC2)c(-c2ncnc3c(C(=O)N[C@H]4CC[C@@H](NC(C)=O)CC4)c(C)[nH]c23)c1 [Example E151, N-[cis-4-(Acetylamino)cyclohexyl]-4-[2-(cyclopropylmethoxy)-5-ethylphenyl]-6-methyl-5H-pyrrolo[3,2-d]pyrimidine-7-carboxamide] | < 1 | 100 to 1000

Next, values leading:

IC50 (PDE5A1) [nM] | IC50 (PDE4B1) [nM] | Compound
< 1 | < 100 | CC(=O)N[C@H]1CC[C@H](NC(=O)c2c(C)[nH]c3c(-c4cc(C(F)F)ccc4OCC4CC4)ncnc23)[C@@H](C)C1 (relative stereo) [Example P139, N-[(1S*,2S*,4S*)-4-(Acetylamino)-2-methylcyclohexyl]-4-[2-(cyclopropylmethoxy)-5-(difluoromethyl)phenyl]-6-methyl-5H-pyrrolo[3,2-d]pyrimidine-7-carboxamide]
< 1 | < 100 | CCC(=O)N[C@H]1CC[C@H](NC(=O)c2c(C)[nH]c3c(-c4cc(C(F)F)ccc4OCC4CC4)ncnc23)[C@H](F)C1 (relative stereo) [Example P170, 4-[2-(Cyclopropylmethoxy)-5-(difluoromethyl)phenyl]-N-[(1S*,2R*,4S*)-2-fluoro-4-(propanoylamino)cyclohexyl]-6-methyl-5H-pyrrolo[3,2-d]pyrimidine-7-carboxamide]
< 1 | 100 to 1000 | COc1ccc(OCC2CC2)c(-c2ncnc3c(C(=O)N[C@H]4CC[C@@H](NC(=O)CO)CC4)c(C)[nH]c23)c1 [Example F45, 4-[2-(Cyclopropylmethoxy)-5-methoxyphenyl]-N-[cis-4-(glycoloylamino)cyclohexyl]-6-methyl-5H-pyrrolo[3,2-d]pyrimidine-7-carboxamide]
< 1 | < 100 | Cc1ccc(OCC2CC2)c(-c2ncnc3c(C(=O)N[C@H]4CC[C@H](NC(=O)[C@H](C)O)CC4)c(C)[nH]c23)c1 [Example F54, 4-[2-(Cyclopropylmethoxy)-5-methylphenyl]-N-(trans-4-{[(2S)-2-hydroxypropanoyl]amino}cyclohexyl)-6-methyl-5H-pyrrolo[3,2-d]pyrimidine-7-carboxamide]
< 1 | < 100 | Cc1[nH]c2c(-c3cc(F)ccc3OCC3CC3)ncnc2c1C(=O)N[C@H]1CC[C@H](NC(=O)[C@H](C)O)CC1 [Example F26, 4-[2-(Cyclopropylmethoxy)-5-fluorophenyl]-N-(trans-4-{[(2S)-2-hydroxypropanoyl]amino}cyclohexyl)-6-methyl-5H-pyrrolo[3,2-d]pyrimidine-7-carboxamide]
1 to 10 | < 100 | COCC(=O)N1CCC(NC(=O)c2c(C)[nH]c3c(-c4cc(C(F)F)ccc4OCC4CC4)ncnc23)CC1 [Example P3, 4-[2-(Cyclopropylmethoxy)-5-(difluoromethyl)phenyl]-N-[1-(methoxyacetyl)piperidin-4-yl]-6-methyl-5H-pyrrolo[3,2-d]pyrimidine-7-carboxamide]
1 to 10 | < 100 | CC(=O)N1C[C@@H](NC(=O)c2c(C)[nH]c3c(-c4cc(C(F)F)ccc4OCC4CC4)ncnc23)C[C@@H]1C [Example P24, N-[(3S,5S)-1-Acetyl-5-methylpyrrolidin-3-yl]-4-[2-(cyclopropylmethoxy)-5-(difluoromethyl)phenyl]-6-methyl-5H-pyrrolo[3,2-d]pyrimidine-7-carboxamide]
< 1 | < 100 | Cc1ccc(OCC2CC2)c(-c2ncnc3c(C(=O)N[C@H]4CC[C@@H](NC(=O)CO)CC4)c(C)[nH]c23)c1 [Example F55, 4-[2-(Cyclopropylmethoxy)-5-methylphenyl]-N-{cis-4-[(hydroxyacetyl)amino]cyclohexyl}-6-methyl-5H-pyrrolo[3,2-d]pyrimidine-7-carboxamide]
< 1 | < 100 | CCc1ccc(OCC2CC2)c(-c2ncnc3c(C(=O)N[C@H]4CC[C@H](NC(=O)[C@H](C)O)CC4)c(C)[nH]c23)c1 [Example F94, 4-[2-(Cyclopropylmethoxy)-5-ethylphenyl]-N-(trans-4-{[(2S)-2-hydroxypropanoyl]amino}cyclohexyl)-6-methyl-5H-pyrrolo[3,2-d]pyrimidine-7-carboxamide]
< 1 | < 100 | CC(=O)N1CCC(NC(=O)c2c(C)[nH]c3c(-c4cc(C(F)F)ccc4OCC4CC4)ncnc23)CC1 [Example P1, N-(1-Acetylpiperidin-4-yl)-4-[2-(cyclopropylmethoxy)-5-(difluoromethyl)phenyl]-6-methyl-5H-pyrrolo[3,2-d]pyrimidine-7-carboxamide]
< 1 | < 100 | CC(=O)N[C@H]1CC[C@H](NC(=O)c2c(C)[nH]c3c(-c4cc(C(F)F)ccc4OCC4CC4)ncnc23)C[C@@H]1F (relative stereo) [Example P209, N-[(1S*,3S*,4S*)-4-(Acetylamino)-3-fluorocyclohexyl]-4-[2-(cyclopropylmethoxy)-5-(difluoromethyl)phenyl]-6-methyl-5H-pyrrolo[3,2-d]pyrimidine-7-carboxamide]
< 1 | < 100 | COCC(=O)N[C@H]1CC[C@H](NC(=O)c2c(C)[nH]c3c(-c4cc(C(F)F)ccc4OCC4CC4)ncnc23)C[C@@H]1F (relative stereo) [Example P211, 4-[2-(Cyclopropylmethoxy)-5-(difluoromethyl)phenyl]-N-{(1S*,3S*,4S*)-3-fluoro-4-[(methoxyacetyl)amino]cyclohexyl}-6-methyl-5H-pyrrolo[3,2-d]pyrimidine-7-carboxamide]
< 1 | < 100 | Cc1ccc(OCC2CC2)c(-c2ncnc3c(C(=O)NC4CCN(C(=O)[C@H](C)O)CC4)c(C)[nH]c23)c1 [Example F52, 4-[2-(Cyclopropylmethoxy)-5-methylphenyl]-N-{1-[(2S)-2-hydroxypropanoyl]piperidin-4-yl}-6-methyl-5H-pyrrolo[3,2-d]pyrimidine-7-carboxamide]

Source: US9376442B2, “Methylpyrrolopyrimidinecarboxamides” (Takeda GmbH, priority 2009, dated 2016)
